Experimental data published in patent US11730712B2, “Functionalized long-chain hydrocarbon mono- and di-carboxylic acids and derivatives thereof, and their use for the prevention or treatment of disease” (ESPERVITA THERAPEUTICS, INC., priority 2021, dated 2023).

Columns and labels:
Format in all cases: cell-based
[1] = tested on: Hep3B cells; assay: Drug interaction (combination) in Hep3B cell proliferation
Experimental: FIGS. 41A-41B show drug interaction effect of Compound I-32 (FIG. 41A) and Compound I-1 (FIG. 41B) in combination with regorafenib in Hep3B cell proliferation. In FIG. 41A, “1+0.015 (μM)” means 1 μM Compound I-32+0.015 μM regorafenib, etc. In FIG. 41B, “1+0.015 (μM)” means 1 μM Compound I-1+0.015 μM regorafenib, etc.
In FIG. 44A, “1+0.03 (μM)” means 1 μM Compound I-1+0.03 μM sorafenib, etc. […] In FIG. 44B, “1+0.005 (μM)” means 1 μM Compound I-1+0.005 μM lenvatinib, etc. […] In FIG. 44C, “1+0.03 (μM)” means 1 μM Compound I-32+0.03 μM sorafenib, etc. […] In FIG. 44D, “1+0.005 (μM)” means 1 μM Compound I-32+0.005 μM lenvatinib, etc.

[2] = tested on: Hep3B human hepatocarcinoma cells; assay: Cell proliferation assay (presto blue, 72 h); settings: for Hep3B cell proliferation compared to control, compound alone: 100 μM; for Hep3B cell proliferation compared to control, compound alone / IC50 / inhibition of Hep3B cell proliferation in combination with lenvatinib vs each agent alone / inhibition of Hep3B cell proliferation in combination with regorafenib vs individual effects / inhibition of Hep3B cell proliferation in combination with sorafenib vs each agent alone: 72 h; for IC50: Homo sapiens, Hep3B, read-out: Hep3B (IC50), anti-proliferation activity; for inhibition of Hep3B cell proliferation in combination with lenvatinib vs each agent alone: compound 100 μM + lenvatinib 0.5 μM; for inhibition of Hep3B cell proliferation in combination with regorafenib vs individual effects: compound 100 μM + regorafenib 1.5 μM; for inhibition of Hep3B cell proliferation in combination with sorafenib vs each agent alone: compound 100 μM + sorafenib 3 μM
Experimental: Cell cultures. Hep3B (ATCC) and Hepa1-6 (ATCC) cells were seeded in 96-well plates at a density of 3000 cells/well with complete media. On day 2, media in each well was aspirated and replaced with 100 μl of fresh complete media and cells were treated with or without Compound I-1, Compound I-32, Compound I1-84, and Compound I-85, in a concentration dependent manner. Then, cells were incubated in an incubator for 72 h. On day 5, 10 μl of presto blue (Invitrogen, cat #A13261) cell viability reagent was added in each 96-well plate and incubated at 37° C. for 1-2 h. After incubation, fluorescence was measured with an excitation/emission wavelength of 560/590 nm.
Proliferation assay. Hep3B (ATCC) and Hepa1-6 (ATCC) cells were seeded in 96-well plates at a density of 3000 cells/well with complete media. On day 2, media in each well was aspirated and replaced with 100 μl of fresh complete media and cells were treated with/without testing compounds in a concentration dependent manner. Then, cells were incubated in an incubator for 72 h. On day 5, 10 μl of presto blue (Invitrogen, cat #A13261) cell viability reagent was added in each 96-well plate and incubated at 37° C. for 1-2 h. After incubation, fluorescence was measured with an excitation/emission wavelength of 560/590 nm. Anti-proliferative combination effects of Compound I-1 or Compound I-32 and regorafenib were determined in Hep3B and Hepa1-6 cells. Drug combination interaction was determined by the Chou-Talalay method (23), which is based on well-known equations for different reaction sequences and mechanisms, and different types of inhibition. These equations provide the theoretical basis for the combination index (CI)-isobologram equation that allows quantitative determination of drug interactions, where CI<1, =1, and >1 indicate synergism, additive effect, and antagonism, respectively. CI is calculated based on in vitro measurements implemented in the Compusyn software (www.combosyn.com), a platform for drug combinations pharmacodynamics with automated simulations. The software calculates CI based on the Fractional Inhibition (Fa), which is the potency expressed by the average effect values for each drug concentrations as determined by in vitro experiments. The dose-effect data entries are utilized for automated computerized analysis by the Compusyn software.
Data entered was obtained by in vitro experiments performed as follows: Hep3B or Hepa 1-6 cells were plated in a 96-well format and cell proliferation rates were determined as described above. Cells were treated with 5 doses of each test agent alone at the following concentrations: compounds of the invention dosed at 1, 5, 10, 50, or 100 μM for both Hep3B and Hepa1-6 cells, regorafenib dosed at 0.015, 0.075, 0.15, 0.75, and 1.5 μM for Hep3B cells or 0.05, 0.25, 0.5, 2.5, 5 μM for Hepa 1-6 cells. […]. Data are shown as Fa-CI plots where CI is the combination index and Fa is fractional inhibition. Results were indicated as mean±standard deviation (SD). All bar diagrams and line graphs were prepared using Graph Pad Prism 8 software. Drug synergy was calculated using the CompuSyn software.
Methods: Hep3B cells (supplied by ATCC) and Hepa1-6 cells (supplied by ATCC) were seeded in 96-well plates at a density of 3000 cells/well with complete media. On day 2, the media in each well was aspirated and replaced with 100 μL of fresh complete media, and the cells were treated in a concentration dependent manner with either Compound I-1, Compound I-32, Compound I-84, Compound I-85, sorafenib, lenvatinib, Compound I-1 in combination with sorafenib. Compound I-1 in combination with lenvatinib, Compound I-32 in combination with sorafenib, or Compound I-32 in combination with lenvatinib. The cells were then incubated in an incubator at 37° C. for 72 h. On day 5, 10 μL of presto blue (Invitrogen, cat #A13261) cell viability reagent was added to each 96-well plate and incubated at 37° C. for 1-2 h. […]

[3] = tested on: Hepa1-6 cells; assay: Drug interaction (combination) in Hepa1-6 cell proliferation
Experimental: FIGS. 42A-42B show drug interaction effect of Compound I-32 (FIG. 42A) and Compound I-1 (FIG. 42B) in combination with regorafenib in Hepa1-6 cell proliferation. In FIG. 42A, “1+0.05 (μM)” means 1 μM Compound I-32+0.05 μM regorafenib, etc. In FIG. 42B, “1+0.05 (μM)” means 1 μM Compound I-1+0.05 μM regorafenib, etc.
In FIG. 46A, “1+0.05 (μM)” means 1 μM Compound I-1+0.05 μM sorafenib, etc. […] In FIG. 46B, “1+0.3 (μM)” means 1 μM Compound I-1+0.3 μM lenvatinib, etc. […] In FIG. 46C, “1+0.05 (μM)” means 1 μM Compound I-32+0.05 μM sorafenib, etc. […] In FIG. 46D, “1+0.3 (μM)” means 1 μM Compound I-32+0.3 μM lenvatinib, etc.

Structure (SMILES) | drug interaction effect in combination with lenvatinib ([1]; at various concentrations) | drug interaction effect in combination with sorafenib ([1]; at various concentrations) | Hep3B cell proliferation compared to control, compound alone [2] | IC50 [2] [µM] | synergism with sorafenib (CompuSyn CI), Hep3B cells ([2]; compound 5 μM and sorafenib 0.15 μM) | synergism with lenvatinib (CompuSyn CI), Hep3B cells ([2]; compound 10 μM and lenvatinib 0.05 μM) | inhibition of Hep3B cell proliferation in combination with lenvatinib vs each agent alone [2] | inhibition of Hep3B cell proliferation in combination with regorafenib vs individual effects [2] | inhibition of Hep3B cell proliferation in combination with sorafenib vs each agent alone [2] | synergism with lenvatinib (CompuSyn CI), Hep3B cells ([2]; compound and lenvatinib: 50 μM and 0.25 μM, 100 μM and 0.5 μM) | synergism with sorafenib (CompuSyn CI), Hep3B cells ([2]; compound and sorafenib: 1 μM and 0.03 μM, 50 μM and 1.5 μM, 100 μM and 3 μM) | drug interaction effect in combination with lenvatinib ([3]; at all tested concentrations) | drug interaction effect in combination with sorafenib ([3]; at all tested concentrations) | drug interaction effect in combination with sorafenib ([1]; at all tested concentrations) | synergism with sorafenib (CI), Hep3B cells ([2]; all tested concentrations: 1 μM and 0.05 μM, 5 μM and 0.15 μM, 10 μM and 0.3 μM, 50 μM and 1.5 μM, 100 μM and 3 μM) | synergism with lenvatinib (CompuSyn CI), Hep3B cells ([2]; compound 5 μM and lenvatinib 0.025 μM) | synergism with lenvatinib (CompuSyn CI), Hep3B cells ([2]; compound and lenvatinib: 1 μM and 0.005 μM, 10 μM and 0.05 μM, 50 μM and 0.25 μM, 100 μM and 0.5 μM) | drug interaction effect in combination with sorafenib ([3]; at various concentrations)
CC(C)(CCCCc1ccc(CCCCC(C)(C)C(=O)O)cc1)C(=O)O [Compound I-1, 6-[4-(5-carboxy-5-methylhexyl)-phenyl]-2,2-dimethylhexanoic acid] | synergism | synergism | inhibited Hep3B cell proliferation compared to control | > 100 | Modest synergism | Moderate synergism | significantly greater inhibition of Hep3B cell proliferation | greater inhibition of cell proliferation compared to their individual effects | significantly greater inhibition of Hep3B cell proliferation | significant synergism | significant synergism | synergism | synergism |  |  |  |  | 
CC(C)(CCCCc1cccc(CCCCC(C)(C)C(=O)O)c1)C(=O)O [Compound I-32, 6-[3-(5-carboxy-5-methylhexyl)-phenyl]-2,2-dimethylhexanoic acid] | synergism |  | inhibited Hep3B cell proliferation compared to control | > 100 |  |  | significantly greater inhibition of Hep3B cell proliferation | greater inhibition of cell proliferation compared to their individual effects | significantly greater inhibition of Hep3B cell proliferation |  |  | synergism |  | synergism | synergism | Modest synergism | significant synergism | synergism
